Measured values reported in PubChem BioAssay AID651551 (Sanford-Burnham Center for Chemical Genomics, 2012).
Calls of active or inactive are those of the source.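 The calls were made as follows: active = compounds blocking the Peg3 reporter with IC50 up to 10 µM at 6 or 24 hours, yet inert on a control reporter; inactive = the rest.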

What was measured:
[1] = GAPDH versus PEG-3 reporter suppression – cell-based, luminescence, counter-screen for PEG-3 promoter inhibitor project, SAR follow-up (AID 651551); conditions: HeLa PEG-Prom / GAPDH luciferase reporter, 6 or 24 h, GAPDH, mean of runs
PEG-3 = PEG-3 (UniProt Q6IN02); assay: as above; conditions: HeLa PEG-Prom / GAPDH luciferase reporter, 6 or 24 h, mean of runs

SMILES | IC50 ([1]; 6 h) | IC50 ([1]; 24 h) | IC50 (PEG-3; 6 h) | IC50 (PEG-3; 24 h)
O=C(Nc1nccs1)c1nn(-c2ccccc2)c(=O)c2ccccc12 | inactive | 8.39 µM | > 99 µM (inactive) | > 99 µM (inactive)
O=C(Nc1nc(-c2ccccc2)cs1)c1nn(-c2ccccc2)c(=O)c2ccccc12 | > 99 µM (inactive) | > 99 µM (inactive) | > 99 µM (inactive) | > 99 µM (inactive)
CCCn1nc(C(=O)Nc2nc3ccccc3s2)c2ccccc2c1=O | > 99 µM (inactive) | inactive | > 99 µM (inactive) | > 99 µM (inactive)
Cc1cc(NC(=O)c2ccccc2C(F)(F)F)n(-c2nc3ccccc3[nH]2)n1 | inactive | 8.73 µM | inactive | inactive
CCCn1nc(C(=O)Nc2nc(-c3ccccn3)cs2)c2ccccc2c1=O | inactive | 7.06 µM | 8.66 µM | inactive
Cc1cc(NC(=O)c2ccccc2)n(-c2nc3ccccc3[nH]2)n1 | > 99 µM (inactive) | > 99 µM (inactive) | inactive | inactive
Cc1nc(NC(=O)c2ccccc2)sc1-c1csc(Nc2ccccc2)n1 | inactive | inactive | > 99 µM (inactive) | inactive
COc1ccc(-n2nc(C(=O)NCC(=O)Nc3cccc(OC)c3)c3ccccc3c2=O)cc1 | > 99 µM (inactive) | inactive | > 99 µM (inactive) | > 99 µM (inactive)
Cc1cc(NC(=O)c2cccc(C)c2C)n(-c2nc3ccccc3[nH]2)n1 | > 99 µM (inactive) | inactive | inactive | > 99 µM (inactive)
COc1ccccc1Nc1nc(-c2sc(NC(=O)c3ccco3)nc2C)cs1 | inactive | 4.17 µM | > 99 µM (inactive) | > 99 µM (inactive)
COc1ccc(-n2nc(C(=O)NCC(=O)Nc3ccc(OC)c(OC)c3)c3ccccc3c2=O)cc1 | inactive | inactive | > 99 µM (inactive) | > 99 µM (inactive)
O=C(Nc1nc2ccccc2s1)c1nn(-c2ccccc2)c(=O)c2ccccc12 | > 99 µM (inactive) | inactive | > 99 µM (inactive) | > 99 µM (inactive)
COc1ccc(Cl)cc1Nc1nc(-c2sc(NC(=O)c3ccccc3)nc2C)cs1 | > 99 µM (inactive) | 9.9 µM | inactive | inactive
Cc1cc(NC(=O)c2ccccc2)n(-c2nc3ccccc3n2C)n1 | > 99 µM (inactive) | > 99 µM (inactive) | inactive | > 99 µM (inactive)

Next, values leading:

IC50 ([1]; 6 h) | IC50 ([1]; 24 h) | IC50 (PEG-3; 6 h) | IC50 (PEG-3; 24 h) | SMILES
inactive | 7.63 µM | inactive | inactive | Cc1ccc(Cl)cc1Nc1nc(-c2sc(NC(=O)c3ccco3)nc2C)cs1
> 99 µM (inactive) | inactive | > 99 µM (inactive) | > 99 µM (inactive) | CCn1cc(C(=O)NCc2ccco2)c(=O)c2cc(S(=O)(=O)N3CCCC3)ccc21
> 99 µM (inactive) | 7.52 µM | > 99 µM (inactive) | > 99 µM (inactive) | Cc1nc(NC(=O)c2ccccc2)sc1-c1csc(Nc2ccccc2Cl)n1
inactive | 3.96 µM | inactive | 6.13 µM | CCn1nc(C(=O)Nc2nc(-c3ccccn3)cs2)c2ccccc2c1=O
inactive | 5.32 µM | inactive | inactive | CCCn1nc(C(=O)Nc2nc(-c3ccncc3)cs2)c2ccccc2c1=O
> 99 µM (inactive) | inactive | > 99 µM (inactive) | > 99 µM (inactive) | Cc1nc(NC(=O)c2ccccc2)sc1-c1csc(Nc2cccc(Cl)c2C)n1
> 99 µM (inactive) | 6.31 µM | > 99 µM (inactive) | > 99 µM (inactive) | COc1ccc(-n2nc(C(=O)NCC(=O)Nc3cc(OC)c(OC)c(OC)c3)c3ccccc3c2=O)cc1OC
> 99 µM (inactive) | 4.68 µM | > 99 µM (inactive) | 6.52 µM | COCCCNC(=O)c1ccc(Cn2c(=O)c3ccccc3n(Cc3ccccc3C#N)c2=O)cc1
> 99 µM (inactive) | inactive | inactive | inactive | Cc1cc(NC(=O)c2ccccc2C)n(-c2nc3ccccc3[nH]2)n1
